As a reminder, the half-life is the time needed for the level to fall by half in the phase considered. The low end stands for rapid decline, the high end for slow decline.

Ends that are not written are not given here.

This note sets out measurements from paper PMC13080581, “Identification and characterization of vasoactive intestinal peptide receptor antagonists with high-affinity and potent anti-leukemia activity” (The Journal of Biological Chemistry, 2025).

One data set in a line: in vitro. The following applies: human, plasma. The class given is in vitro ADME. The text has this: Data were plotted using GraphPad Prism.
The subject of a further data set is C1498ff cells. Nature of the data set: C1498ff leukemia model in B6 albino mice, ANT308 schedules. The class given is in vivo, mouse. The following applies: high-dose (100 μg). The procedure: All experimental procedures involving animals were approved by the Institutional Animal Care and Use Committee (IACUC) at Emory University. On day 0, B6 mice were injected by tail vein injection (i.v.) with 1 × 10^6 C1498 cells. DBA/2 mice were injected subcutaneously (s.c.) with 1 x 10^5 P815-luciferase mastocytoma cells. Growth of luciferase + C1498ff in B6 albino recipients was assessed by bioluminescent imaging (BLI) after mice were anesthetized, injected intraperitoneally (i.p.) with luciferin substrate (15 μg/g mouse), and imaged using an IVIS imaging system, starting at day 6 before treatment and continuing once weekly. Albino B6 mice surviving to >60 days without evidence of AML (by luciferase assay) received a second injection of a two-fold higher dose of C1498 (2 × 10^6 cells). DBA/2 mice that received P815 cells and treatment with ANT308, and survived past 60 days, were rechallenged using 2 x 10^5 P815 cells. Lymphocyte kinetics and C1498 leukemia cell burden were analyzed weekly through pterygoid venous plexus blood collection in CD45.1+ B6.SJL recipients; CD45.2 C1498 tumor cells were differentiated from CD45.1 host cells by flow cytometry. Mice that reached endpoint conditions were euthanized and counted as dead on the next day. […]

The next data set can be described thus: in vivo. The settings on record: mouse, iv.
A further data set concerns human T cells. The following applies: 3 µM.
The target in data set [1] is T1, VPAC1 on Vipr2 KO murine T-cells (Mus musculus, UniProt P97751).
T1 construct: Vipr2 knockout (KO) T-cells stained for VPAC1 (green); endogenous in cells; host or cells: T cells from Vipr2 knockout mice
T1 sequence (P97751 31-459): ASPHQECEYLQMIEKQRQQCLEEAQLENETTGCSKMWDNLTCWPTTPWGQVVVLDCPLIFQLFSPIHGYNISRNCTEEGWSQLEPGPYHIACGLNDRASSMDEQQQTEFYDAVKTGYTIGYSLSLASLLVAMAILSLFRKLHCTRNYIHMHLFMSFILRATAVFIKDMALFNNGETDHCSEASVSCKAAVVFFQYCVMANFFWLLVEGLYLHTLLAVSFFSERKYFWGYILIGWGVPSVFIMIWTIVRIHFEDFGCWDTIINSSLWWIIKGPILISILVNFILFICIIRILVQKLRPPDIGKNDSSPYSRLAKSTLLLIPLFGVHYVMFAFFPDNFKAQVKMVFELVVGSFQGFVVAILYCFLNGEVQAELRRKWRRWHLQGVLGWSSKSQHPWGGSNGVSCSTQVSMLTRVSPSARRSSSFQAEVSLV
The data set can be described thus: Immunostaining colocalization with VPAC1 on Vipr2 KO murine T-cells. It counts as cell-based. The following applies: Pearson's correlation. The procedure:
Merge + NucleusSupplementary Figure 5. Immunostaining showing 6xHis-ANT308, 6xHis-VIP, and 6xHis-Scrambled-sequence peptides colocalization with VPAC1 on murine T-cells surface. Isolated T-cells from naïve wild-type (WT) C57BL/6 mice were activated with α-CD3/α-CD28 beads and incubated with 10µM (A-F) ANT308-6xHis, (G-L) VIP-6xHis and (M-R) VIP fully SCRAM-6xHis in the presence of IL-2 (30 IU/mL) for 1 hour. The cells were fixed with 4% Paraformaldehyde, stained with VPAC1 (green), 6xHis-tag (magenta) & Hoechst (blue) and visualized on Cell-Tak coated glass-bottom plates. (A-C, G-I and M-O) en face view, (D,J & P) representative field view, (E, K & Q) 3D view, (F, L & R) line scan profiles showing colocalization patterns of ANT308-6xHis, VIP-6xHis and VIP-fully scrambled-6xHis with VPAC1 on T-cell membrane. Relative fluorescence intensity (RFI), arbitrary unit. (S) Quantification of co-localization using Pearson’s correlation coefficient (R-value). Data are shown as mean ± SD with individual data points (n=10). Statistical significance was determined by one-way Anova with post-hoc multiple comparisons. **** p < 0.0001, *** p < 0.001. Scale 2.5µm.
Supplementary Figure 6. […] (K) Quantification of co-localization using Pearson’s correlation coefficient (R-value). […] Statistical significance was determined by one-way Anova with post-hoc multiple comparisons. **** p < 0.0001. […]

The nature of data set [2]: In vivo plasma half-life of 6xHis-tagged peptides after i.v. injection, western blot. The following applies: mouse, iv.
Method: Plasma was collected at multiple time points post-injection and analyzed by SDS-PAGE using 12% polyacrylamide gel. Densitometry was performed using ImageJ and % peptide remaining was plotted using GraphPad Prism. The images were acquired using BioRad ChemiDoc Touch Imaging System with Image Lab Touch Software.
Data set [3] has as its target VIP receptor (VIP-R) on human T cells (human (endogenous in human T cells)) (UniProt P32241).

Chain of VIP receptor (VIP-R) on human T cells (human (endogenous in human T cells)) (P32241 31-457): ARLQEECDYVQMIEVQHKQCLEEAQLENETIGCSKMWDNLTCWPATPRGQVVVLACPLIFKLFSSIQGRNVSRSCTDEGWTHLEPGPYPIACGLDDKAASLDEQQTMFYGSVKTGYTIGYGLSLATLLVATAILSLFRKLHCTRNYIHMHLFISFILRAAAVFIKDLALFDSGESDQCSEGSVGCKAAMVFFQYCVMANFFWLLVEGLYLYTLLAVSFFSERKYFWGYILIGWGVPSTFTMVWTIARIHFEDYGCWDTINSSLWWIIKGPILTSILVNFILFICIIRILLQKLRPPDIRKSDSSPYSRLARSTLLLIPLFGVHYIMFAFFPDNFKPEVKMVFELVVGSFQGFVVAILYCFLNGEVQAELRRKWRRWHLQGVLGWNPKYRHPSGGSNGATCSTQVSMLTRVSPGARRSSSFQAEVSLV

In turn, `CC[C@H](C)[C@H](NC(=O)[C@H](CO)NC(=O)[C@H](CC(N)=O)NC(=O)[C@H](CC(C)C)NC(=O)[C@H](Cc1ccc(O)cc1)NC(=O)[C@H](CCCCN)NC(=O)[C@H](CCCCN)NC(=O)[C@@H](NC(=O)[C@H](C)NC(=O)[C@H](CCSC)NC(=O)[C@H](CCC(N)=O)NC(=O)[C@H](CCCCN)NC(=O)[C@H](CCCNC(=N)N)NC(=O)[C@H](CC(C)C)NC(=O)[C@H](CCCNC(=N)N)NC(=O)[C@@H](NC(=O)[C@H](Cc1ccc(O)cc1)NC(=O)[C@H](CC(N)=O)NC(=O)[C@H](CC(=O)O)NC(=O)[C@@H](NC(=O)[C@H](Cc1ccccc1)NC(=O)[C@@H](NC(=O)[C@H](C)NC(=O)[C@H](CC(=O)O)NC(=O)[C@H](CO)NC(=O)[C@@H](N)Cc1c[nH]cn1)C(C)C)[C@@H](C)O)[C@@H](C)O)C(C)C)C(=O)N[C@@H](CC(C)C)C(=O)N[C@@H](CC(N)=O)C(=O)N[C@@H](Cc1c[nH]cn1)C(=O)N[C@@H](Cc1c[nH]cn1)C(=O)N[C@@H](Cc1c[nH]cn1)C(=O)N[C@@H](Cc1c[nH]cn1)C(=O)N[C@@H](Cc1c[nH]cn1)C(=O)N[C@@H](Cc1c[nH]cn1)C(N)=O` [VIP-6xHis, reference compound] gave a half-life in “in vitro” of roughly 15 min.

In the case of “KPRRPYTSDYTRLRKQMAVKKYLNLILN-NH2 [ANT308]”, the “toxic effects in weight or behavior of treated mice” value in the data set with C1498ff cells is “did not produce any observable toxic effects”. For “KPRRPYTSDYTRLRKQMAVKKYLNLILNHHHHHH-NH2 [ANT308-6xHis]”, the half-life in “in vitro” and in “in vivo” was roughly 15 min throughout. Turning to “KPRRPYTVNYTSLRKQIAVKKYLMLILN-NH2 [ANT195]”, the T cell viability in the data set with human T cells is on record as roughly 30%. As for “YDDHTKLKINTARLVSAQSNVFNMLKYRHHHHHH-NH2 (C-terminus assumed) [VIP fully SCRAM-6xHis]”, the “co-localization with VPAC1 in Vipr2 KO murine T-cells” value in data set [1] is “shows no overlap”. The half-life in data set [2] was roughly 30 min. In the case of KPRRPYTSDYTRLRKQMAVKKYLNLILN-NH2 [ANT308], the CD69 expression on CD4+ or CD8+ pooled human T cells treated with increasing concentrations of ANT308 (T cell activation, flow cytometry) in data set [3] is 0.3 to 0.4 µM.
